Test results from paper PMC6662706, “Short amylin receptor antagonist peptides improve memory deficits in Alzheimer’s disease mouse model” (Scientific Reports, 2019).
No end group written: not given here.

Assays:
[1] = target: T1, AMY3 receptor (Homo sapiens, UniProt O60896+P30988); assay: Block of hAmylin-evoked cAMP generation in HEK-AMY3 cells; format: cell-based; conditions: peptide 30 min then hAmylin 1 pM–10 µM 30 min, peptides 10 µM (Fig. 1E legend), 1 µM (supplement method)
T1 construct: expressed in transfected cells
T1 sequence (P30988 25-474): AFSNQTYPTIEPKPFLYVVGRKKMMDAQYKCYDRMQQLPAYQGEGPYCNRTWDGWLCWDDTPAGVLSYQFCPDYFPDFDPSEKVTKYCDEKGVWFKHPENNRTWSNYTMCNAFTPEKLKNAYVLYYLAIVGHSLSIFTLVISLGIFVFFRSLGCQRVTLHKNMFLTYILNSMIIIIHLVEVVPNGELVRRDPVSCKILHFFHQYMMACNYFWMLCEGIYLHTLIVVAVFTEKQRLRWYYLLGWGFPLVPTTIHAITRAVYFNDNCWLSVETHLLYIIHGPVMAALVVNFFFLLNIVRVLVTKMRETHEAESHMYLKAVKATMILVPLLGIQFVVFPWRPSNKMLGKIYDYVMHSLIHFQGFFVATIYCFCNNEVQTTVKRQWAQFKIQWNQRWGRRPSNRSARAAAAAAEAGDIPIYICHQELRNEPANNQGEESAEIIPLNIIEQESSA
T1 sequence (O60896 24-148): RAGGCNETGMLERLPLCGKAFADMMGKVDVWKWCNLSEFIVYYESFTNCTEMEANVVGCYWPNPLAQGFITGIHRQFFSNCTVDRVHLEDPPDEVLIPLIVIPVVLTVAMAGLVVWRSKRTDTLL
Excerpt: Human amylin is a potent agonist at amylin receptor stimulating cAMP production in cells. In the first in vitro bioassay, we examined ability of R5 and R14 to block the hAmylin-evoked cAMP generation in HEK-AMY3 cells. R11 peptide served as a negative control. […] In a second in vitro assay, we examined whether peptides R5, and R14 could protect human fetal neurons (HFNs) and N2a (mouse neuroblastoma cell line) from Αβ1–42 induced cytotoxicity.
A shorter peptide library was derived from AC253 peptide sequence comprising 12–14 amino acid peptides. […] To determine the activity of these shorter peptides to block AMY3 receptor signaling, cellular cAMP levels (measured using a parameter cyclic AMP assay kit, R&D Systems) and phosphorylation ERK1/2 (Western blot) were measured. We assessed neuroprotective properties of the peptide fragments against Aβ cytotoxicity in vitro using the MTT assay in N2a cell line and human fetal neurons (HFNs), which were prepared from 12- to 15-gestational week fetuses with approval of the Human Ethics Research Board at the University of Alberta as previously reported[17],[19].
For cAMP measurements, HEK-AMY3 cells were plated on 24-well plates overnight. […] Cellular cAMP levels were measured using a parameter cyclic AMP assay kit (R&D Systems) according to the manufacturer’s instructions. […]

[2] = system: 5XFAD mice; assay: Morris Water Maze and probe test, 5XFAD and wild-type mice; format: in vivo, mouse; conditions: for memory task in age-matched wild-type control mice: systemic administration, ip three times a week for 5 weeks
Procedure: The determination of injection amount of R5 (200 µg/kg) was based on achieving equimolar concentrations as the full length peptide, cAC253[21] and prior studies that used pramlintide injections[22],[23]. The normal mouse circulated endogenous amylin level is 0.7 ± 0.4 pmol/L in plasma[32] and based upon our in vitro data (Fig. 1E) unlikely to perturb the function of peptides in vivo at these concentrations.
For in vivo studies, 5XFAD mouse breeding stocks were obtained from the Jackson Laboratory (JAX #006554). Intraperitoneal injection (ip) administration of fragment R5 and cAC253 was carried out in 5XFAD mice and wild-type littermate control mice (both male and female). These mice were equally and randomly distributed into 6 groups (n = 10 for each group), and received either normal saline (NS), cAC253 or R5 fragment (200 µg/kg) i.p. injections 3 times a week starting at 6 months of age for 5 weeks.
The Morris Water Maze (MWM) and probe test were carried out for behavioral testing. The mice were trained for 3 days (4 trials per day) to find a submerged platform (target quadrant, TQ). The trial ended when a mouse found and climbed onto the platform within 120s. Mice were tested with inter-trial interval of 50 min. Memory was evaluated in probe trial, administered on day 4 as the first trial of the day. During probe trial, the platform was removed from the pool. Memory for the platform location was expressed as the percent of time spent in TQ.
For in vivo experiments, intraperitoneal injection (ip) administration of fragment R5 and cAC253 was carried out in 6 month old transgenic 5XFAD mice and wild-type littermate control mice (both male and female) obtained from Dr. David Westaway (University of Alberta). These mice were equally and randomly distributed into 6 groups and 10 mice assigned for each group, Tg-NS, Tg-cAC253, Tg-R5, Wt-NS, Wt-cAC253, Wt-R5. Randomized double blind control experiment was carried out for the whole in vivo experiment, i.e. the individual administering ip injections was blinded to the identity of the drug, and the individual testing behavior was blind to the treatment being administered. […]
The MWM apparatus consisted of 2-m circular blue plastic pool filled with water (24–25°C), which was rendered opaque by the addition of non-toxic white paint. […] The behavior of a mouse was recorded by a video camera connected to a video tracking system (HVS Image 2100, HVS Image, Buckingham, UK).
The pool was surrounded by a white curtain, and a mouse was released facing the wall at points (N, E, S, W) which were chosen semi-randomly. […] Memory was evaluated in probe trial, administered on day 4 as the first trial of the day. […] Memory for the platform location was expressed as the percent of time spent in TQ.

Substance | block of hAmylin-evoked cAMP increases [1] | Morris Water Maze escape latencies, 5XFAD mice versus normal saline ([2]; 200 µg/kg ip three times a week for 5 weeks from 6 months of age, n = 9 mice per group) | Probe trial, quadrant preference, 5XFAD mice ([2]; 200 µg/kg ip three times a week for 5 weeks, n = 9) | memory task in age-matched wild-type control mice [2]
SQELHRLQTYPR-NH2 [R5] | blocked the cAMP increases in a dose-dependent manner | marked improvement in escape latencies | preference for the target quadrant | no alterations in the memory task
LGRLSQELHRLQTYPRTNTGSNTY-NH2 (C-terminus assumed) [AC253, reference compound] | inhibited |  |  | no alterations in the memory task
